We go through two molecules from US5804571A (U.S. Bioscience, priority 1995, dated 1998).

SMILES strings stand for the structures.

The conditions of data set [1]: AZT recipients, cited from earlier work.
The subject of data set [2] is murine hematopoietic system. In words: exogenous spleen colony (CFU-S) assay, toxicity to the murine hematopoietic system. It counts as in vivo. The note with it: CFU-S assay 20 hrs after drug administration, mice. The procedure:
To evaluate toxicity to the murine hematopoietic system, an exogenous spleen colony (CFU-S) assay was used. A suitable number of murine […] are injected (intravenously) into lethally irradiated syngeneic mice (Ref. Hodgson, G. S., and Bradley, T. R., Properties of Haematopoietic Stem Cells Surviving 5-FU Treatment: Evidence for a pre-CFU-S Cell48, Nature 281:381, 1979).
Colonies are found in the spleen of the recipients on Day 9 or 10; there is a linear relationship between the number of cells injected and the number of spleen colonies. The spleen colonies originate from a single cell, and contain cells of the erythroid, granulocytic and megakaryocytic series.
At 20 hours after drug administration, each mouse was sacrificed and bone marrow was extracted from the femurs into McCoy's 5A medium (GIBCOm Grand Island, N.Y.) on ice. Nucleated marrow cells were quantitated, and 5×10^4 cells were injected intravenously into syngeneic recipient mice one hour after they received 800 rads whole body radiation. Nine days later, the recipient animals were sacrificed, and the spleens were removed and fixed in Boulin's solution. Surface colonies were then counted.

Data set [3] deals with human immunodeficiency virus (HIV). To be noted: cited from earlier work.
[4] abbreviates: placebo 4 percent (P less than 0.001).

Turning to `Cc1cn([C@H]2C[C@H](N=[N+]=[N-])[C@@H](CO)O2)c(=O)[nH]c1=O` [AZT, 3'-azido-3'-deoxythymidinc], the “neutropenia (less than 500 cells per cubic millimeter), share of recipients” value in data set [1] (placebo 2 percent (P less than 0.001)) was 16%. Also, in data set [1] (setting [4]), the “anemia with hemoglobin levels below 7.5 per deciliter, share of recipients” value is recorded as 24% and the “required multiple red-cell transfusions, share of recipients” value was 21%. Also, in data set [2] (AZT alone, 400 mg/kg ip), the “CFU-S Survival (% of Control)” value turned out to be 18%. In data set [3] (AIDS patients), the “clinical benefits with AIDS” value is listed as “clinical benefits with AIDS have been reported”. In addition, the serious adverse reactions result in data set [3] (human, in vivo) is recorded as “serious adverse reactions, particularly bone marrow suppression were observed”.

Regarding `CNCCCNCCCSP(=O)(O)O` [S-3-(3-methylaminopropylamino)propyl dihydrogen phosphorothioate], the “CFU-S Survival (% of Control)” value in data set [2] (phosphorothioate 900 mg/kg po, followed in 30 minutes with AZT 400 mg/kg ip) is listed as 68%.
